Patent US20040116522A1, “Medicinal solutions” (priority 2001, published 2004)

Key:
[1] = cited from earlier work
[2] = Serum drug concentration after subcutaneous implantation of the minipump of Example 6; type: in vivo; settings: from s.c. minipump of Example 6 in male SD rats
Description: The subcutaneous implantation type minipump prepared in Example 6 was subcutaneously implanted in the back of 7-week-old male SD rats. After a predetermined time after the implantation, blood was drawn from the tail vein of the rats, and serum was separated.

Period of sustained release [2] [days]	Structure (SMILES)	pKa [1]
	O=C(O)c1cc2ccccc2cc1O [3-hydroxy-2-naphthoic acid]	2.708
21	CONC(=O)Nc1ccc(-c2sc3c(c2CN(C)Cc2ccccc2)c(=O)n(-c2ccccc2)c(=O)n3Cc2c(F)cccc2F)cc1 [Reference Example 7, 5-(N-Benzyl-N-methylaminomethyl)-1-(2,6-difluorobenzyl)-6-[4-(3-methoxyureido)phenyl]-3-phenylthieno[2,3-d]pyrimidine-2,4(1H,3H)-dione]	
